US20240350481A1, “USE OF N-MYRISTOYL TRANSFERASE (NMT) INHIBITORS IN THE TREATMENT OF CANCER, AUTOIMMUNE DISORDERS, AND INFLAMMATORY DISORDERS” (PACYLEX PHARMACEUTICALS INC., priority 2020, published 2024)

Key:
[1] = test system: cell lines originating from solid tumors; assay: ChemPartner cell line screen, CellTiter Blue; assay type: cell-based; conditions: 72 h; 3 days of treatment; 10 μM is the highest dose tested; read-out: median IC50
Experimental: (§1) 131 cell lines were seeded in 96-well plate, black wall, tissue culture treated (from Corning, Cat.3904) and cultured following ATCC formulation. Cell viability after 72 hrs and 144 hrs was measured using Cell Titer Blue Viability Assay (from Promega, Cat. G8081, Lot. No. 0000190181) and fluorescence at 560/590 nm was recorded with Enspire (PerkinElmer). EC50 was calculated using XLfit software (5.5).

[2] = test system: hematological cancer cell lines; assay: ChemPartner cell line screen, CellTiter Blue; assay type: cell-based; conditions: 72 h; 3 days of treatment; read-out: median IC50
Experimental: as §1

[3] = Experimental: Data collected were the same as in the Charles River xenograft study—clinical signs, body weight, tumor volume, blood samples from 3 mice/group for hematology and clinical chemistry (ALT, AST, BUN, creatinine, CK), and tissue samples collected and fixed from the same 3 mice. Liver, kidneys, and small intestine also were weighed.
The dose volume was 10 mL/kg.

Compound: Cc1c(N[S+](=O)([O-])c2c(Cl)cc(-c3ccnc(N4CCNCC4)c3)cc2Cl)c(CC(C)C)nn1C [PCLX-001]
- IC50 [1]: ≥ 10000 nM
- IC50 [2]: 166 nM
- clinical pathology and anatomic pathology ([3]; 20, 50, 60 mg/kg/day): no clinical pathology or anatomic pathology findings
- dehydration and body weight ([3]; 50 or 60 mg/kg/day): Dehydration and weight loss
- clinical signs ([3]; most mice in groups given PCLX-001 (20, 50, 60 mg/kg/day)): Signs of ill health
